In paper PMC9569420 (Communications Biology, 2022):

What was measured:
AXL = target: T1, AXL (Homo sapiens, UniProt P30530); assay: HotSpot kinase assay; type: biochemical; settings: read-out: % Enzyme Activity (relative to DMSO controls)
T1 construct: purchased Reaction Biology Corporation

c-MER = target: T2, c-MER (Homo sapiens, UniProt Q12866); assay: HotSpot kinase assay; type: biochemical; settings: read-out: % Enzyme Activity (relative to DMSO controls)
T2 construct: purchased Reaction Biology Corporation

CAMK1g = target: T3, CAMK1g (Homo sapiens, UniProt Q96NX5); assay: HotSpot kinase assay; type: biochemical; settings: read-out: % Enzyme Activity (relative to DMSO controls)
T3 construct: purchased Reaction Biology Corporation

CAMKK2 = target: T4, CAMKK2 (Homo sapiens, UniProt Q96RR4); assay: HotSpot kinase assay; type: biochemical; settings: read-out: % Enzyme Activity (relative to DMSO controls)
T4 construct: purchased Reaction Biology Corporation

CDK2/cyclin A1 = target: T5, CDK2/cyclin A1 (Homo sapiens, UniProt P24941); assay: HotSpot kinase assay; type: biochemical; settings: read-out: % Enzyme Activity (relative to DMSO controls)
T5 construct: purchased Reaction Biology Corporation

CDK3/cyclin E = target: T6, CDK3/cyclin E (Homo sapiens, UniProt Q00526); assay: HotSpot kinase assay; type: biochemical; settings: read-out: % Enzyme Activity (relative to DMSO controls)
T6 construct: purchased Reaction Biology Corporation

CDK4/cyclin D1 = target: T7, CDK4/cyclin D1 (Homo sapiens, UniProt P11802); assay: HotSpot kinase assay; type: biochemical; settings: read-out: % Enzyme Activity (relative to DMSO controls)
T7 construct: purchased Reaction Biology Corporation

CDK6/cyclin D1 = target: T8, CDK6/cyclin D1 (Homo sapiens, UniProt Q00534); assay: HotSpot kinase assay; type: biochemical; settings: read-out: % Enzyme Activity (relative to DMSO controls)
T8 construct: purchased Reaction Biology Corporation

CDK7/cyclin H = target: T9, CDK7/cyclin H (Homo sapiens, UniProt P50613); assay: HotSpot kinase assay; type: biochemical; settings: read-out: % Enzyme Activity (relative to DMSO controls)
T9 construct: purchased Reaction Biology Corporation

CDK8/cyclin C = target: T10, CDK8/cyclin C (Homo sapiens, UniProt P49336); assay: HotSpot kinase assay; type: biochemical; settings: read-out: % Enzyme Activity (relative to DMSO controls)
T10 construct: purchased Reaction Biology Corporation

CK1a1L = target: T11, CK1a1L (Homo sapiens, UniProt Q8N752); assay: HotSpot kinase assay; type: biochemical; settings: read-out: % Enzyme Activity (relative to DMSO controls)
T11 construct: purchased Reaction Biology Corporation

CK1g1 = target: T12, CK1g1 (Homo sapiens, UniProt Q9HCP0); assay: HotSpot kinase assay; type: biochemical; settings: read-out: % Enzyme Activity (relative to DMSO controls)
T12 construct: purchased Reaction Biology Corporation

CLK3 = target: T13, CLK3 (Homo sapiens, UniProt P49761); assay: HotSpot kinase assay; type: biochemical; settings: read-out: % Enzyme Activity (relative to DMSO controls)
T13 construct: purchased Reaction Biology Corporation

DDR2 = target: T14, DDR2 (Homo sapiens, UniProt Q16832); assay: HotSpot kinase assay; type: biochemical; settings: read-out: % Enzyme Activity (relative to DMSO controls)
T14 construct: purchased Reaction Biology Corporation

HCK = target: T15, HCK (Homo sapiens, UniProt P08631); assay: HotSpot kinase assay; type: biochemical; settings: read-out: % Enzyme Activity (relative to DMSO controls)
T15 construct: purchased Reaction Biology Corporation

HIPK3 = target: T16, HIPK3 (Homo sapiens, UniProt Q9H422); assay: HotSpot kinase assay; type: biochemical; settings: read-out: % Enzyme Activity (relative to DMSO controls)
T16 construct: purchased Reaction Biology Corporation

IRAK4 = target: T17, IRAK4 (Homo sapiens, UniProt Q9NWZ3); assay: HotSpot kinase assay; type: biochemical; settings: read-out: % Enzyme Activity (relative to DMSO controls)
T17 construct: purchased Reaction Biology Corporation

KHS/MAP4K5 = target: T18, KHS/MAP4K5 (Homo sapiens, UniProt Q9Y4K4); assay: HotSpot kinase assay; type: biochemical; settings: read-out: % Enzyme Activity (relative to DMSO controls)
T18 construct: purchased Reaction Biology Corporation

LIMK1 = target: T19, LIMK1 (Homo sapiens, UniProt P53667); assay: HotSpot kinase assay; type: biochemical; settings: read-out: % Enzyme Activity (relative to DMSO controls)
T19 construct: purchased Reaction Biology Corporation

MAK = target: T20, MAK (Homo sapiens, UniProt P20794); assay: HotSpot kinase assay; type: biochemical; settings: read-out: % Enzyme Activity (relative to DMSO controls)
T20 construct: purchased Reaction Biology Corporation

MEK5 = target: T21, MEK5 (Homo sapiens, UniProt Q13163); assay: HotSpot kinase assay; type: biochemical; settings: read-out: % Enzyme Activity (relative to DMSO controls)
T21 construct: purchased Reaction Biology Corporation

MNK2 = target: T22, MNK2 (Homo sapiens, UniProt Q9HBH9); assay: HotSpot kinase assay; type: biochemical; settings: read-out: % Enzyme Activity (relative to DMSO controls)
T22 construct: purchased Reaction Biology Corporation

MRCKa/CDC42BPA = target: T23, MRCKa/CDC42BPA (Homo sapiens, UniProt Q5VT25); assay: HotSpot kinase assay; type: biochemical; settings: read-out: % Enzyme Activity (relative to DMSO controls)
T23 construct: purchased Reaction Biology Corporation

MST3/STK24 = target: T24, MST3/STK24 (Homo sapiens, UniProt Q9Y6E0); assay: HotSpot kinase assay; type: biochemical; settings: read-out: % Enzyme Activity (relative to DMSO controls)
T24 construct: purchased Reaction Biology Corporation

MST4 = target: T25, MST4 (Homo sapiens, UniProt Q9P289); assay: HotSpot kinase assay; type: biochemical; settings: read-out: % Enzyme Activity (relative to DMSO controls)
T25 construct: purchased Reaction Biology Corporation

PKAcb = target: T26, PKAcb (Homo sapiens, UniProt P22694); assay: HotSpot kinase assay; type: biochemical; settings: read-out: % Enzyme Activity (relative to DMSO controls)
T26 construct: purchased Reaction Biology Corporation

RET = target: T27, RET (Homo sapiens, UniProt P07949); assay: HotSpot kinase assay; type: biochemical; settings: read-out: % Enzyme Activity (relative to DMSO controls)
T27 construct: purchased Reaction Biology Corporation

STK25/YSK1 = target: T28, STK25/YSK1 (Homo sapiens, UniProt O00506); assay: HotSpot kinase assay; type: biochemical; settings: read-out: % Enzyme Activity (relative to DMSO controls)
T28 construct: purchased Reaction Biology Corporation

TNIK = target: T29, TNIK (Homo sapiens, UniProt Q9UKE5); assay: HotSpot kinase assay; type: biochemical; settings: read-out: % Enzyme Activity (relative to DMSO controls)
T29 construct: purchased Reaction Biology Corporation

TYK2 = target: T30, TYK2 (Homo sapiens, UniProt P29597); assay: HotSpot kinase assay; type: biochemical; settings: read-out: % Enzyme Activity (relative to DMSO controls)
T30 construct: purchased Reaction Biology Corporation

ZIPK/DAPK3 = target: T31, ZIPK/DAPK3 (Homo sapiens, UniProt O43293); assay: HotSpot kinase assay; type: biochemical; settings: read-out: % Enzyme Activity (relative to DMSO controls)
T31 construct: purchased Reaction Biology Corporation

EEF2K = target: T32, EEF2K (Homo sapiens, UniProt O00418); assay: HotSpot kinase assay; type: biochemical; settings: read-out: % Enzyme Activity (relative to DMSO controls)
T32 construct: purchased Reaction Biology Corporation

[1] = Parallel artificial membrane permeability assay (PAMPA); type: in vitro ADME
HSV-2(G) = assay: nuclear transport of VP-16 (immunoblot of nuclear extracts); type: cell-based; settings: HaCat and primary vaginal cells, 1 h; CIMSS 10 μM, antibody 2 μg/ml
Method: To quantify viral entry, cells were synchronously infected by allowing virus to bind to cells at 4°C for 4 h, washed, and then transferred to 37 °C. CIMSS or control DMSO was added at the time of temperature shift. At indicated times post-temperature shift, the cells were treated with a low pH buffer to inactivate virus that had not penetrated, washed, overlaid with medium containing methyl cellulose and viral plaques were counted at 48 h. Entry was also assessed by immunoblotting nuclear extracts for VP16. […] Nuclear extracts were prepared after 1 h and analyzed by western blot with antibodies targeting VP16, histone H1 and golgin-97[5]. The non-nuclear fraction was also probed for golgin-97 as a positive control. […] After 1 or 4 h of incubation, the cells were fixed. Plasma membranes were stained using Image -IT^TM LIVE Plasma Membrane kit and nuclei were stained with DAPI (Thermo Fisher Scientific, Cat 134406). The percentage of GFP + nuclei was determined by counting ~200 cells over 3–4 fields. Images were obtained with Leica SP8 microscope (objective 63 × 1.4); xz images were captured with optical slice 0.6 µm, 25–30 slices per image.

HaCat cells = assay: western blot for cleaved PARP-1 or cleaved caspase 8; settings: 0.1, 1, or 10 µM, 8 h

T16 sequence (Q9H422 whole entry): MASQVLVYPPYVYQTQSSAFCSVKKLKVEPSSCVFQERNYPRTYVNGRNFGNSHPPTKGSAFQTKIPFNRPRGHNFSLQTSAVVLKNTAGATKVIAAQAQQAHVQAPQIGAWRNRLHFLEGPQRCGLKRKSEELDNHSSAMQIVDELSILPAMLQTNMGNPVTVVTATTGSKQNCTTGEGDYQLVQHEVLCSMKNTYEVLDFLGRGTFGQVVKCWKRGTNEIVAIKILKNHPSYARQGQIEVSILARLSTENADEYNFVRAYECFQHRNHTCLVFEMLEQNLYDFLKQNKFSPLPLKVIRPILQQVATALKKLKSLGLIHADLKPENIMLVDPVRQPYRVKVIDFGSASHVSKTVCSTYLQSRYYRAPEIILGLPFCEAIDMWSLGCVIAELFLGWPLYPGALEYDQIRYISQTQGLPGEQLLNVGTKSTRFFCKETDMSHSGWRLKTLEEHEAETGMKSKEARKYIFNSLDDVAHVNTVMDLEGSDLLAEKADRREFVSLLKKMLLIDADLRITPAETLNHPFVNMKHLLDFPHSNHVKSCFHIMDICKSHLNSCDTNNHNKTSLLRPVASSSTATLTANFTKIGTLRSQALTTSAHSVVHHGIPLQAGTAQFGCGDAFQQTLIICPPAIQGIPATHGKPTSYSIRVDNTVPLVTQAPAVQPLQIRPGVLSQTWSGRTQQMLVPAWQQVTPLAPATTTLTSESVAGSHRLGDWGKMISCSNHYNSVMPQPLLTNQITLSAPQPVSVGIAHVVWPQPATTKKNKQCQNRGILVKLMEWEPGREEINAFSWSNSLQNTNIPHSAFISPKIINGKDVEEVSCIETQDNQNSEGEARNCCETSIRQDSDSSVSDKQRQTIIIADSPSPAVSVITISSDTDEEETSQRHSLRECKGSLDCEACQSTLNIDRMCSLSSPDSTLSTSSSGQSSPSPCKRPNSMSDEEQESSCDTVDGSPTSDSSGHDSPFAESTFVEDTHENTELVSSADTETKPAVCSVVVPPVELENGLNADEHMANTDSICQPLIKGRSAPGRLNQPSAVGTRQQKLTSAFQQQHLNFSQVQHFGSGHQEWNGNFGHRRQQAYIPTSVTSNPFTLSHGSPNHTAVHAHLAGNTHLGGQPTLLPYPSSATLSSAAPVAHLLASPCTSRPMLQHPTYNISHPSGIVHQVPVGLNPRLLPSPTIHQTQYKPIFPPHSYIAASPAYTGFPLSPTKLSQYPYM
T8 sequence (Q00534 whole entry): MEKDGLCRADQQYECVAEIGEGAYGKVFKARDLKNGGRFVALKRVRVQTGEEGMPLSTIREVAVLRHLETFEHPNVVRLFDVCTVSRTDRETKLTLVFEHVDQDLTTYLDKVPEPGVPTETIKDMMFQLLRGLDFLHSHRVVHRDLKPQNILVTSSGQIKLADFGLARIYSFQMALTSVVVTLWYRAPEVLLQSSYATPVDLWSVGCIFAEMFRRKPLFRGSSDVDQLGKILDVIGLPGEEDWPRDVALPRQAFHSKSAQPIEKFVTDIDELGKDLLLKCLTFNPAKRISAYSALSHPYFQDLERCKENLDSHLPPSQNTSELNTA
T8 sequence (P24385 whole entry partner): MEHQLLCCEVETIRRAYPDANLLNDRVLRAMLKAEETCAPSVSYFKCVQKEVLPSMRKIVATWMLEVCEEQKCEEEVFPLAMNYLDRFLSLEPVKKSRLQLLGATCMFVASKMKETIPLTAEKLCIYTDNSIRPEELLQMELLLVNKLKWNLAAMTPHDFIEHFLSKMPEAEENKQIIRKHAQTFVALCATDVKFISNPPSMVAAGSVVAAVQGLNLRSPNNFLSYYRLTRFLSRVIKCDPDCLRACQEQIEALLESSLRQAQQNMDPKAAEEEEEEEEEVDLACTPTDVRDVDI
T21 sequence (Q13163 whole entry): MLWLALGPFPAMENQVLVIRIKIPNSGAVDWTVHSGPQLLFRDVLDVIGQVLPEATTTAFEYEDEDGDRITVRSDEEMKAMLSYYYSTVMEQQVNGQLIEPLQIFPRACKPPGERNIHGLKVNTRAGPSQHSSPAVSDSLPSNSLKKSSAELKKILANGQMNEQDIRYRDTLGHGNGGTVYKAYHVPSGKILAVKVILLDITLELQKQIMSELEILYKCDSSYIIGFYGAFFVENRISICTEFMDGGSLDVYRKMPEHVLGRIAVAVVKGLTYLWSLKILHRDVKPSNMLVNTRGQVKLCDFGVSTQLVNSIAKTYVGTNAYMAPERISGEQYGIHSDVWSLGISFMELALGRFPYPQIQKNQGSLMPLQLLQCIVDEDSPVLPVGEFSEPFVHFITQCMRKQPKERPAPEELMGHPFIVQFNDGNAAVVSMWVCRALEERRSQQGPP
T31 sequence (O43293 whole entry): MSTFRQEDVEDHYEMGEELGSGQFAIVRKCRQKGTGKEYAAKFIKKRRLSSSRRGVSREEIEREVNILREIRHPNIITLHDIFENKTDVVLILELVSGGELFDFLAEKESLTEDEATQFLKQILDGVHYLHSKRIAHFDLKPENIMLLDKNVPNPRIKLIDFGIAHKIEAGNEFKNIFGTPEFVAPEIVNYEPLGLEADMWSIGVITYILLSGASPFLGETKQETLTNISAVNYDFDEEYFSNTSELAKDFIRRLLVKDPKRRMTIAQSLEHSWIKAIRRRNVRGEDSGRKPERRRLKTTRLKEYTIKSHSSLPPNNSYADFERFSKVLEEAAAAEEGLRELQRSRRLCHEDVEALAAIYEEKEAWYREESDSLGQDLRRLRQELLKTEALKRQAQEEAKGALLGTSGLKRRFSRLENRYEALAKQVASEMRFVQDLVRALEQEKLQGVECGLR
T19 sequence (P53667 whole entry): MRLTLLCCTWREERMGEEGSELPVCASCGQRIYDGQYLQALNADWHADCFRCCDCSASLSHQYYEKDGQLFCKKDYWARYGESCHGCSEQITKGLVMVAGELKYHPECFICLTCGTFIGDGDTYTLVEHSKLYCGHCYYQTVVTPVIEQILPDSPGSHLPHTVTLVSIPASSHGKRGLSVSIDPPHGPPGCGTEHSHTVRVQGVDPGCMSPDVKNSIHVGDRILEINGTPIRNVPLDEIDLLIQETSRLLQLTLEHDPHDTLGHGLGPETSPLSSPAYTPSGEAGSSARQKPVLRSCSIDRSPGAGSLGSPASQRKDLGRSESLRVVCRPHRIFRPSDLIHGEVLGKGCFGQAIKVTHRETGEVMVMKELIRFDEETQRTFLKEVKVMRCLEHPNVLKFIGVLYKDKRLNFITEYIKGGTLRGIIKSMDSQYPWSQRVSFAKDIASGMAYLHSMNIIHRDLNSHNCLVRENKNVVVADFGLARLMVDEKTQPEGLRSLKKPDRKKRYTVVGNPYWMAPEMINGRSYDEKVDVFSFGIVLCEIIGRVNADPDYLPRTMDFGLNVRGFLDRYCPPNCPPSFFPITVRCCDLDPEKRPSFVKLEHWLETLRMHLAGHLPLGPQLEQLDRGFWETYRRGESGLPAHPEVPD
T12 sequence (Q9HCP0 whole entry): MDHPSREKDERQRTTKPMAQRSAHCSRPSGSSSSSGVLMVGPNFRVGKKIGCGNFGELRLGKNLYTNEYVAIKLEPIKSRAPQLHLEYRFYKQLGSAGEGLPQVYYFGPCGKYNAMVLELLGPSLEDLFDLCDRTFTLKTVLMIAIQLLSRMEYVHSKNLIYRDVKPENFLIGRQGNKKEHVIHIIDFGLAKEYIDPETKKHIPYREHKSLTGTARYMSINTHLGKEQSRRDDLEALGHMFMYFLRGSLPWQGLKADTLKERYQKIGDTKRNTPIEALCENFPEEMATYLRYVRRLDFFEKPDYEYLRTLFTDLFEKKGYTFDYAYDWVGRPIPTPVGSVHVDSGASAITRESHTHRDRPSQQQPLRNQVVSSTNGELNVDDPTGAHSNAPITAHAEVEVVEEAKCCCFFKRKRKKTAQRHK
T10 sequence (P49336 whole entry): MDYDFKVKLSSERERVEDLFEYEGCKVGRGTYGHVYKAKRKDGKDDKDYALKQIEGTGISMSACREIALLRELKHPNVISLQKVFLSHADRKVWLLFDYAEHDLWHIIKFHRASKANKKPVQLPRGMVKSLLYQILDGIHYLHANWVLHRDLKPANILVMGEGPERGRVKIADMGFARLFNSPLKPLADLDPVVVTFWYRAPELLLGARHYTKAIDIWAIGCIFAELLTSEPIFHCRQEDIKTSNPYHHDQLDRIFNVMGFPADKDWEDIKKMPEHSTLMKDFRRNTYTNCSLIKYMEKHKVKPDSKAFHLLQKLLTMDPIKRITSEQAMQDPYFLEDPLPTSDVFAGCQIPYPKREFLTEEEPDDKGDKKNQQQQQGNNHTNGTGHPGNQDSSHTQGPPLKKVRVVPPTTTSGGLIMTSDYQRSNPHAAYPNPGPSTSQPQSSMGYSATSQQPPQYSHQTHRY
T10 sequence (P24863 whole entry partner): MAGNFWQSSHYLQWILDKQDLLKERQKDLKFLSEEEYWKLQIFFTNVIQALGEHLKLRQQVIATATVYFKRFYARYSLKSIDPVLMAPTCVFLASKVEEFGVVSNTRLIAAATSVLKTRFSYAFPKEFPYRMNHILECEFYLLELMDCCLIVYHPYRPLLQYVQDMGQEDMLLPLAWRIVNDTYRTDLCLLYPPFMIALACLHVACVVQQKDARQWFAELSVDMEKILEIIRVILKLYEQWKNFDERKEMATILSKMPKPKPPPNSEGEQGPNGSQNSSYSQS
T28 sequence (O00506 whole entry): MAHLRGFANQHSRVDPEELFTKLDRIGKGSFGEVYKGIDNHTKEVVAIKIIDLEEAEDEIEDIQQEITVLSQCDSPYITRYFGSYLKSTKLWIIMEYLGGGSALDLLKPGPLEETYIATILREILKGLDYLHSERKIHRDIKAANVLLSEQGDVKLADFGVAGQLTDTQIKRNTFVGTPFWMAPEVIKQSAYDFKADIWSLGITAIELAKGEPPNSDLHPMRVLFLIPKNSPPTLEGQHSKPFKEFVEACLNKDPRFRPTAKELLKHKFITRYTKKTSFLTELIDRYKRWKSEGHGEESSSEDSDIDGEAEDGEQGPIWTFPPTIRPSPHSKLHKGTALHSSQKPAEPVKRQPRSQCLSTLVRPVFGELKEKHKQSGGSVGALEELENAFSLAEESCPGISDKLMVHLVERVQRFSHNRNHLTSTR

CO[C@@H]1[C@H](N(C)C(=O)CCC(=O)NCc2cn(CCCS(=O)(=O)O)nn2)C[C@H]2O[C@]1(C)n1c3ccccc3c3c4c(c5c6ccccc6n2c5c31)C(=O)NC4 [CIMSS]
remaining activity at 10 µM (AXL): 3.61%
remaining activity at 10 µM (c-MER): 2.17%
remaining activity at 10 µM (CAMK1g): 8.97%
remaining activity at 10 µM (CAMKK2): 1.86%
remaining activity at 10 µM (CDK2/cyclin A1): 7.95%
remaining activity at 10 µM (CDK3/cyclin E): 13.9%
remaining activity at 10 µM (CDK4/cyclin D1): 68.8%
remaining activity at 10 µM (CDK6/cyclin D1): 63%
remaining activity at 10 µM (CDK7/cyclin H): 65.6%
remaining activity at 10 µM (CDK8/cyclin C): 10.1%
remaining activity at 10 µM (CK1a1L): 82.8%
remaining activity at 10 µM (CK1g1): 95.9%
remaining activity at 10 µM (CLK3): 35.4%
remaining activity at 10 µM (DDR2): 1.67%
remaining activity at 10 µM (HCK): 7.23%
remaining activity at 10 µM (HIPK3): 14.5%
remaining activity at 10 µM (IRAK4): 6.48%
remaining activity at 10 µM (KHS/MAP4K5): 5.19%
remaining activity at 10 µM (LIMK1): 0.88%
remaining activity at 10 µM (MAK): 13.2%
remaining activity at 10 µM (MEK5): 40.4%
remaining activity at 10 µM (MNK2): 4.79%
remaining activity at 10 µM (MRCKa/CDC42BPA): 71.3%
remaining activity at 10 µM (MST3/STK24): 16.6%
remaining activity at 10 µM (MST4): 1.35%
remaining activity at 10 µM (PKAcb): 1.62%
remaining activity at 10 µM (RET): 2.1%
remaining activity at 10 µM (STK25/YSK1): 4.17%
remaining activity at 10 µM (TNIK): 1.22%
remaining activity at 10 µM (TYK2): 6.35%
remaining activity at 10 µM (ZIPK/DAPK3): 6.48%
remaining activity at 10 µM (EEF2K): 99.5%
Recover % ([1]; 100 µM): 83%
Papp at 5 h, 100 μM ([1]; PAMPA, PBS pH 7.4, 5 h): 0.005 ×10⁻⁶ cm/s
nuclear transport of VP-16 (HSV-2(G)): inhibited
levels of phosphorylated Akt (serine 473 and threonine 308) in non-permeabilized cells (Akt, PDPK1, PLCγ; 10µM): reduce levels
phosphorylation of PDPK1 and PLCγ (Akt, PDPK1, PLCγ; 10 µM, 15 and 30 min following viral infection): inhibited
PARP-1 or caspase 8 cleavage (HaCat cells): did not induce
